Source: ChEMBL document CHEMBL4311944, “Discovery of 3-Oxabicyclo[4.1.0]heptane, a Non-nitrogen Containing Morpholine Isostere, and Its Application in Novel Inhibitors of the PI3K-AKT-mTOR Pathway” (J Med Chem, 2019)
≈ marks a conversion by molar mass, not a printed value.

Assays:
[1] = Inhibition of ligand binding to mTORC1/mTORC2 in human HuT78 cells after 2 hrs by kinobead competition binding assay; assay type: cell-based
[2] = target: T1, Phosphatidylinositol 4,5-bisphosphate 3-kinase catalytic subunit delta isoform (Homo sapiens, UniProt O00329); test: Inhibition of PI3Kdelta (unknown origin) using PIP2 as substrate preincubated for 15 mins followed by substrate addition and measured after 1 hr by HTRF assay
T1 sequence (O00329 whole entry): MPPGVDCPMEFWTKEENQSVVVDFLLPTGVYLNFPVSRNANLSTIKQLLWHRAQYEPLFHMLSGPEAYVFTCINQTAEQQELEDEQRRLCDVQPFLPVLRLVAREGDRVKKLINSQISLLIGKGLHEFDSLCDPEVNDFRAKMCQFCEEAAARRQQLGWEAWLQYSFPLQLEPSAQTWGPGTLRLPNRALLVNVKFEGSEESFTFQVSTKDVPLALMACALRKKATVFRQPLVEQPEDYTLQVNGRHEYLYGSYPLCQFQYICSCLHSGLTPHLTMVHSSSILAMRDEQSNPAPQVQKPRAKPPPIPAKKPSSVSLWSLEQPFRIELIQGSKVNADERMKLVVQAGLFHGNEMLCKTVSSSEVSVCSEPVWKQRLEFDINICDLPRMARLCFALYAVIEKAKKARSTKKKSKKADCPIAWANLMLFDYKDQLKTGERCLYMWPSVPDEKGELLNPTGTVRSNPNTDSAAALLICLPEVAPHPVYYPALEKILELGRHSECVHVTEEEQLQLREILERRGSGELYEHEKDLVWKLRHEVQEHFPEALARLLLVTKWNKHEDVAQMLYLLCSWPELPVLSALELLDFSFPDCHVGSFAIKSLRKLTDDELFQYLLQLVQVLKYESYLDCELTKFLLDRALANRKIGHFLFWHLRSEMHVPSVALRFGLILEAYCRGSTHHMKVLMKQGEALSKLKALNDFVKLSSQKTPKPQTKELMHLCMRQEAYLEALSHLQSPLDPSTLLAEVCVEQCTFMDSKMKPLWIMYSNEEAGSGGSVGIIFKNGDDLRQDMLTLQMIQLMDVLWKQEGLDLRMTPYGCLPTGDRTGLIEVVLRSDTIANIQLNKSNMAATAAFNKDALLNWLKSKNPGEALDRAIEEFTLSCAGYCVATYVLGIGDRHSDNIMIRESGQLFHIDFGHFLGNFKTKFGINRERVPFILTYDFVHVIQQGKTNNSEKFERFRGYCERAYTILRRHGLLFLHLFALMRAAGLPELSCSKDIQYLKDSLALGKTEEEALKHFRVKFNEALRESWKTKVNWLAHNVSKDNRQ

[3] = Intrinsic clearance in rat hepatocytes; assay type: ADME, cell-based, Hepatocyte
[4] = Intrinsic clearance in human hepatocytes; assay type: ADME, cell-based, Hepatocyte
[5] = Intrinsic clearance in rat microsomes; assay type: ADME, Microsome
[6] = Intrinsic clearance in human microsomes; assay type: ADME, Microsome
[7] = Kinetic solubility of the compound in pH 7.4 phosphate buffered saline measured after 1 hr; assay type: physicochemical; settings: read-out: Kinetic_solubility
[8] = Lipophilicity, logP of the compound by reversed phase column chromatography; assay type: physicochemical
[9] = Inhibition of PI3K/AKT/mTOR in human lung fibroblasts assessed as reduction in AKT phosphorylation at serine473 residue preincubated for 1 hr followed by PDGF-BB stimulation and measured after 10 mins by electrochemiluminescence method
[10] = target: Phosphatidylinositol 4,5-bisphosphate 3-kinase catalytic subunit alpha isoform (Homo sapiens, UniProt P42336)
Sequence of Phosphatidylinositol 4,5-bisphosphate 3-kinase catalytic subunit alpha isoform (P42336 whole entry, canonical isoform): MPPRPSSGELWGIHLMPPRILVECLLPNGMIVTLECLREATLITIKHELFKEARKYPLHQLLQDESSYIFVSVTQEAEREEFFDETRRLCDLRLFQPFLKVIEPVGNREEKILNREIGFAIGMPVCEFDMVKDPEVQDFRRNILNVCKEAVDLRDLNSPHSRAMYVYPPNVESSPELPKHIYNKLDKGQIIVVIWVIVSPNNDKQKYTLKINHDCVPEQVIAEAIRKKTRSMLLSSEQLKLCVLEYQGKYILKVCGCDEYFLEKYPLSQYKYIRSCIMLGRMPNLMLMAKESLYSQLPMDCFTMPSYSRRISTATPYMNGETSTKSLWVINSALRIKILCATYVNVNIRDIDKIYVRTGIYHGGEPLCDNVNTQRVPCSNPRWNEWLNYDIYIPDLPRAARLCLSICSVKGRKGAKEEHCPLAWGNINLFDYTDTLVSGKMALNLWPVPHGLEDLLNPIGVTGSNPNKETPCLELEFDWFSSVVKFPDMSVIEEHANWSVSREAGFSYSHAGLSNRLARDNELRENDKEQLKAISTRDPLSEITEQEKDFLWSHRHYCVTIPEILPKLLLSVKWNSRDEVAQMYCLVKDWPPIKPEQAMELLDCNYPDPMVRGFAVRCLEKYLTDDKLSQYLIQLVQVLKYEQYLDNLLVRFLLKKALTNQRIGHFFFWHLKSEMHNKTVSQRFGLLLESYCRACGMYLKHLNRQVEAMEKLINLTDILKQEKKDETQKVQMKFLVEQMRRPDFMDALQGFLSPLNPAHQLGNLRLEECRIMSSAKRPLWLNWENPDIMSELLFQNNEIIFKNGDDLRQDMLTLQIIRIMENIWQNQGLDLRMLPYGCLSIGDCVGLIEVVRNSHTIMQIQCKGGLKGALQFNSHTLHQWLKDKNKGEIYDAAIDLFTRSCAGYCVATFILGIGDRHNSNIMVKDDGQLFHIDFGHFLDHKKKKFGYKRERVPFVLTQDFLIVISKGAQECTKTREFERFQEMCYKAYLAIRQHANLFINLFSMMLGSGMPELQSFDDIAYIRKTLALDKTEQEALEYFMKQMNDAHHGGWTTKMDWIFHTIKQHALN
Description: Inhibition of PI3Kalpha (unknown origin) using PIP2 as substrate preincubated for 15 mins followed by substrate addition and measured after 1 hr by HTRF assay

pIC50 [1]	IC50 [2] [µM]	CLH [3] [mL/min/g]	CLH [4] [mL/min/g]	CL [5] [mL/min/g]	CL [6] [mL/min/g]	solubility kinetic at 1 h [7] [µg/mL]	logP [8]	IC50 [10] [µM]	SMILES	IC50 [9] [µM]
8.6	31.6	13	5.1	1.4	3.1	173 (≈ 353 µM)	3.9	25.1	CC(C)(c1cc([C@]23CCOC[C@H]2C3)nc(-c2ccc(NC(=S)NCCO)cc2)n1)S(C)(=O)=O	0.0316
8.4	–	2.8	0.9	0.8	0.9	–	3.6	–	C[C@H]1COCCN1c1cc(C(C)(C)S(C)(=O)=O)nc(-c2ccc(NC(=S)NCCO)cc2)n1	0.0398
6.1	5.01	–	–	2	1.2	136 (≈ 398 µM)	3.4	6.31	CCNC(=O)Nc1ccc(-c2nccc(N3CCOC[C@@H]3C)n2)cc1	1.26
